# Laboratory results published in publication PMC5104425, “A Novel Selective Inhibitor of Delta-5 Desaturase Lowers Insulin Resistance and Reduces Body Weight in Diet-Induced Obese C57BL/6J Mice” (PLoS ONE, 2016).
# Key:
# DIO mice = test: Established DIO mice (HFD D12079B for 50 weeks), 11-week treatment: BW, calorie intake, fat mass; type: in vivo, C57BL/6J mice
# Procedure: In this report, we performed 3 independent studies in DIO mice to characterize anti-obesity effects of our D5D specific inhibitor. Male C57BL/6J mice were obtained from Charles River Laboratories (Yokohama, Japan) or CLEA Japan (Osaka, Japan). The mice were fed a laboratory chow and water ad libitum and housed in a 12-h light/dark cycle. Compound or vehicle was administered once daily between 15: 00–19:00 by oral gavage. Body weight (BW) and food intake were monitored throughout the experiment.
# To evaluate the effect on daily EE, DIO mice fed a HFD that has 41% kcal from fat and contains no AA (D12079B; Research diets, Inc., see S1 Table for fatty acids composition) for 50 weeks were used. At 55 weeks of age, DIO mice were divided into two weight-matched groups (7 animals per group) and treated with vehicle or 10 mg/kg compound-326 for 11 weeks. […] Indirect calorimetry test was performed on day1, 8, 15, 21, and 56 during the study. Daily EE was analyzed using ANCOVA with body mass as covariate. After the treatment period, mice were sacrificed and fat tissues were harvested to evaluate the weights.
# human D5D = molecular target: T1, human D5D (Homo sapiens, UniProt O60427); test: In vitro cell-based assay for desaturase activity (HepG2), D5D
# T1 construct: endogenous in cells; host or cells: HepG2
# T1 sequence (O60427 whole entry): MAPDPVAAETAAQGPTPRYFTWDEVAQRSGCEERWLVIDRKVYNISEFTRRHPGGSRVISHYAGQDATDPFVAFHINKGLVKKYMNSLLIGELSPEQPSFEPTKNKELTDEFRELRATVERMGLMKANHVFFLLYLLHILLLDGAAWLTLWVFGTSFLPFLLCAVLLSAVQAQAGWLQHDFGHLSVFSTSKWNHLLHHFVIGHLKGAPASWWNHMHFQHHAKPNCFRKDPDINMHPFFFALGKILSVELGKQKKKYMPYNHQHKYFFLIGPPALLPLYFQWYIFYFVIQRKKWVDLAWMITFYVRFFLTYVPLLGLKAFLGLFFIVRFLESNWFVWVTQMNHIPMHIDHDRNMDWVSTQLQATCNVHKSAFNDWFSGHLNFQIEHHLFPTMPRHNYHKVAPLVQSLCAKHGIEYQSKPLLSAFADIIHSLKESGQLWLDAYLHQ
# Procedure: HepG2 cells were seeded in 96-well cell culture plates at 100 000 cells/well and incubated overnight in DMEM supplemented with 10% fetal bovine serum, 100 U/mL penicillin, and 100 μg/mL streptomycin in 5% CO2 at 37°C. The cells were washed twice with 200 μL of PBS and incubated with the test compounds in DMEM with 0.1% fatty acid free BSA for 30 min. Then, 0.1 μCi/well of [^14C]-labeled DGLA, linoleic acid, and stearic acid (ARC, St. Louis, MO) were added for each desaturase assay. After incubation for 3 h at 37°C, the cells were washed 3 times with 200 μL of PBS to remove [^14C]-labeled substrates in the medium and 0.63 N of NaOH was added to saponify fatty acids. Radioactive substrates and products were extracted, separated, and analyzed using the method as described above.
# [1] = system: epididymal fat of DIO mice; test: Satellite DIO mice, day 32: epididymal fat gene expression and BW; type: in vivo, C57BL/6J mice; conditions: 10 mg/kg, 32 days
# Description: (§1) Total RNA was extracted and purified using RNeasy Mini Kit (QIAGEN, USA). First-strand cDNA was synthesized using High Capacity cDNA Reverse Transcription Kits (Thermo Fisher, USA). The mRNA levels were quantified by an ABI Prism 7900 TaqMan PCR system (Thermo Fisher, USA) according to the manufacturer’s instruction using TaqMan® Universal PCR Mastermix with the primer-probe sets of TaqMan Gene Expression Assays (Thermo Fisher, USA) for the following genes: Ccl2 (chemokine (C-C motif) ligand 2; Mm99999056_m1), Cd68 (CD68 antigen; Mm03047343_m1), Adgre1 (adhesion G protein-coupled receptor E1; Mm00802529_m1), Tnf (tumor necrosis factor; Mm00443258_m1), Il6 (interleukin 6; Mm99999064), Lep (leptin; Mm00434759_m1), Adipoq (adiponectin; Mm00456425_m1), Fads2 ([…]; Mm00517221_m1), Fads1 ([…]; Mm00507605_m1), Ucp1 (uncoupling protein 1; Mm00494069_m1), Elovl3 (elongation of very long chain fatty acids 3; Mm00468164_m1), Cidea (cell death-inducing DNA fragmentation factor, alpha subunit-like effector A; Mm00432554_m1), Otop1 (otopetrin 1; Mm00554705_m1), and Rplp0 (ribosomal protein, large, P0; forward; 5'-[…]-3', reverse; 5'-[…]-3', probe (VIC-5'→3'-TAMRA); 5'-[…]-3'). The Rplp0 mRNA level was used as a reference and relative transcript levels were calculated with the comparative Ct method (2^-ΔΔCT) (Applied Bio-systems).
# In 6 weeks administration study of compound-326 (10 mg/kg), satellite animals were prepared to evaluate the gene expression levels in epididymal fat at the intermediate point (day 32). Mice fed a HFD (D12079B; Research diets, Inc.) from 5 weeks of age were divided into 2 groups at the age of 8 weeks (11 animals per group), and were administered 10 mg/kg compound-326 or vehicle for 32 days. After the treatment period, mice were sacrificed and epididymal fat were harvested for mRNA analysis. […] (B) RT-qPCR was performed in epididymal fat tissue after 32 days treatment. Data are expressed as mean ± SE (n=11). *p≤ 0.05 vs. DIO vehicle by Aspin-Welch test. ¶¶p≤ 0.01 vs. DIO vehicle by Student's t-test.
# fat tissues of DIO mice = test: RT-qPCR gene expression in epididymal and subcutaneous fat of DIO mice after 6-week treatment; type: in vivo, C57BL/6J mice; conditions: 10 mg/kg, 6 weeks
# Procedure: Mice fed a HFD that has 41% kcal from fat and contains no AA (D12079B; Research diets, Inc.) from 5 weeks of age were divided into 2 groups at the age of 8 weeks (8 animals per group), and were administered 10 mg/kg compound-326 or vehicle for 6 weeks. After the treatment period, mice were sacrificed and epididymal and subcutaneous fats were harvested for mRNA analysis. Nine animals maintained on a standard chow (CE2, CLEA Japan, Osaka) were used as control.
# as §1
smiles,measurement,setting,value
"O=C1Cc2c(nc(OCC(F)(F)C(F)(F)F)n(-c3ccc(OCC(F)(F)F)cc3)c2=O)N1 [Compound-326, 2-(2,2,3,3,3-Pentafluoropropoxy)-3-[4-(2,2,2-trifluoroethoxy)phenyl]-5,7-dihydro-3H-pyrrolo[2,3-d]pyrimidine-4,6-dione]",daily calorie intake,"DIO mice; 10 mg/kg p.o., 11 weeks","slightly decreased until day 21, followed by a trend toward increase"
same,cumulative calorie intake,"DIO mice; 10 mg/kg p.o., 11 weeks (data not shown)",no appreciable change
same,BW,"DIO mice; 10 mg/kg p.o., 11 weeks, from day 21 until day 77",sustained and significant BW reduction
same,white adipose tissue (WAT) depot mass,"DIO mice; 10 mg/kg, 11 weeks, mesenteric fat p≤0.05, subcutaneous and epididymal fat p≤0.01 vs vehicle",marked decrease
same,IC50,human D5D,22 nM
same,Adgre1 gene expression level in epididymal fat,[1],significantly decreased
same,BW,[1],no significant BW loss
same,Ccl2 gene expression level in epididymal fat,[1],significantly decreased
same,Cd68 gene expression level in epididymal fat,[1],significantly decreased
same,Il6 gene expression level in epididymal fat,[1],significantly decreased
same,D5D mRNA expression in epididymal fat,fat tissues of DIO mice,upregulated
same,D6D mRNA expression in epididymal fat,fat tissues of DIO mice,upregulated
same,"beige fat cell-selective genes, including Ucp1, Cidea, Elovl3, and Otop1, in subcutaneous fat",fat tissues of DIO mice,no induction
same,epididymal Lep mRNA,fat tissues of DIO mice,decreased
same,epididymal Adipoq mRNA,fat tissues of DIO mice; did not reach statistical difference (p = 0.08),decreased
same,Lep mRNA in subcutaneous fat,fat tissues of DIO mice; did not reach statistical significance (p = 0.08),decrease
same,Adgre1 expression in epididymal fat,fat tissues of DIO mice; not significant,decreased
same,Cd68 expression in epididymal fat,fat tissues of DIO mice; not significant,decreased
same,Ccl2 expression in epididymal fat,fat tissues of DIO mice; significant effect,decreased
